Laboratory results from US20140039056A1, “BROMFENAC ORGANIC SALTS AND PREPARATION METHOD, COMPOSITION AND USE THEREOF” (SHENYANG XINGQI PHARMACEUTICAL CO., LTD., priority 2010, published 2014).
Counter-ions that a name gives are not always drawn.

How the values were obtained:
[1] = In vitro transdermal absorption test (diffusion cell, ex vivo rat skin); settings: for Accumulative osmolality: ex vivo rat skin, 32° C., n = 3; for Total osmolality of 24 h: 24 h accumulative osmolality x effective area 1.23 cm^2; for transdermal absorption amount relative to bromfenac sodium: in vitro; for Osmotic rate: slope of accumulative osmolality Q against time; for Osmotic percentage: total osmolality of 24 h / mass added to supplying chamber
Method: Preparation of solutions of bromfenac salts: bromfenac sodium, bromfenac diethylamine salt of Example 1, and bromfenac trometamol salt of Example 2 were precisely weighed separately to obtain 0.25 g samples, which were separately placed in 25 ml volumetric flasks, and phosphate buffered solution (pH value was 7.0) was used to reach the metered volume to obtain stock solutions for standby use.
Chromatography conditions: detector: ultraviolet absorption detector (wavelength: 266 nm). Chromatography column: octadecyl silica column (4.0 mm×150 mm, 5 μm). Mobile phase: precisely weighed ammonium acetate 3.85 g, added with water to the metered volume of 1000 mL. 600 mL of this solution was taken, and added with 250 mL of methanol and 150 mL of tetrahydrofuran. Flow rate: 1.5 mL/min.
Plotting standard curves: bromfenac sodium, bromfenac diethylamine salt and bromfenac trometamol salt in suitable amounts were precisely weighed separately, dissolved in mobile phase, diluted separately to form test solutions with concentrations of 10, 30, 60, 120, 300, 700 μg/ml, which were separately weighed precisely to take 20 μl and injected into chromatography and separately assayed.
Transdermal absorption test: ex vivo skins of back and abdomen of 200-260 g rats were taken and used as osmotic membranes, which were fixed with suture on diffusion cells (diffusion cells having a diameter of 1.25 cm, and an effective area of 1.23 cm^2). Stock solutions of bromfenac sodium, bromfenac diethylamine salt and bromfenac trometamol salt in an amount of 2 ml were separately added to supplying chamber, 100 ml of physiological saline was used as receiving solution in receiving cells, kept at a constant temperature of 32° C., stirred (250 r/min). 5 ml samples of receiving solutions were taken precisely with time intervals of 0, 2, 4, 6, 8, 10, 12, 24 hours, filtered, measured according to the above method to determine first-order light spectrum derivative absorption values and calculate contents, and accumulative osmolality Q was calculated according to the following formula;
In the above formula, c is concentration of receiving solution sample; v1 is volume of sample as taken at every turn; v2 is volume of diffusion cell; A is diffusion area. Diagrams were plotted by using t as abscissa, Q as ordinate to obtain osmosis curves of bromfenac sodium, bromfenac diethylamine salt and bromfenac trometamol salt; linear regression was performed using accumulative osmolality Q against time, the obtained slope K was transdermal osmotic rate; the accumulative osmolality of 24 hours was multiplied by the effective osmotic area (1.23 cm^2) to obtain total osmolality of 24 hours; and the total osmolality of 24 hours was divided by the mass of the added product in the supplying chamber to obtain osmotic percentage.

[2] = Tissue distribution test (muscle tissue under skin after application to the back); settings: rats; for Concentration in muscle tissue / concentration at 0 h / concentration at 2 h / concentration at 4 h / concentration at 6 h / concentration at 8 h / concentration at 10 h: n = 3; for time at which distribution in tissue reaches maximum values (peak concentrations): muscle tissue under skin; for concentration distributed in tissue compared with bromfenac sodium: muscle tissue; for concentration at 0 h / concentration at 2 h / concentration at 4 h / concentration at 6 h / concentration at 8 h / concentration at 10 h: rat, 1 g preparation, Concentration in muscle tissue
Method: Preparation of bromfenac salt solutions: 0.25 g samples of bromfenac sodium, bromfenac diethylamine salt as prepared in Example 1 and bromfenac trometamol salt as prepared in Example 2 were precisely weighed separately, placed in 25 ml volumetric flasks respectively, metered volume to obtain stock solutions for standby use.
Chromatography conditions: detector: ultraviolet absorption detector (wavelength: 266 nm). Chromatography column: octadecyl silica gel column (4.6 mm×150 mm, 5 μm). Mobile phase: precisely weighed ammonium acetate 3.85 g, added with water to the metered volume of 1000 mL. 700 mL of this solution was taken and added with 300 mL acetonitrile. Flow rate: 1.0 mL/min.
Plotting standard curves: 200 μl samples of blank tissue were taken, separately added with 50 μl of series standard solutions of bromfenac sodium, bromfenac diethylamine salt and bromfenac trometamol salt separately, added with 50 μl of internal standard respectively, to form sample solutions with equivalent tissue concentrations of bromfenac sodium, bromfenac diethylamine salt and bromfenac trometamol salt as 50, 100, 250, 500, 1000, 5000, 10000 ng/ml, which were separately weighed precisely to take 20 μl and injected into chromatography and separately assayed.
1) On the test day, removed short hair on the back of rats were with a electric hair clipper to expose surface layer of skin, while trying to avoid breaking skin during hair cutting, and then washed unhairing region with a large quantity of water;
2) anesthetized rats using 10% chloral hydrate in anesthetic agent dose of 3.5 ml/kg;
3) randomly divided the rats into 3 groups, 15 rats per group. On the unhairing region of back, the rats of 3 groups were separately administered with 1 g of bromfenac sodium, bromfenac diethylamine and Bromfenac trometamol preparations, and the administration regions were covered with freshness-keeping plastic film;
4) executed rats before administration (0 hours) and at 2 hours, 4 hours, 6 hours, 8 hours, 10 hours after administration, took muscle tissues under skin of administration sites;
5) simply washed muscle tissues with physiological saline, then absorbed excessive water with filter paper;
6) precisely weighed 1 g of muscle tissue, cut into pieces, homogenizing with 3 ml of physiological saline in electric grinding mill. A homogeneous muscle tissue homogenate was obtained after muscle tissue was ground completely;
7) took […] of tissue sample, added with 50 μL of an internal standard solution, mixed homogeneously, added with 1 mL of methanol, mixed by vortex for 1 min, centrifuged for 5 min (3500 rpm), separated and placed upper layer organic phase into another tube, blow-dried with 37° C. air, dissolved the residue by adding 100 μL of mobile phase, mixed by vortex, and took 20 μL to perform HPLC analysis.

[3] = Chemical stability in solid state (accelerated stability test at 60° C.); assay type: physicochemical; settings: for change of content in accelerated test at 60° C.: solid state, in words
Method: HPLC Analysis Conditions:
Detector: ultraviolet absorption detector (wavelength: 266 nm).
Chromatography column: octadecyl silica gel column (4.0 mm×150 mm, 5 um).
Mobile phase: 3.85 g of ammonium acetate was precisely weighed, added with water to reach the metered volume of 1000 mL.

[4] = Chemical stability in aqueous state (25° C., dark); assay type: physicochemical; settings: for degradation products and content changes in aqueous solution: dark conditions, in words

| Compound | Accumulative osmolality ([1]; 2 hours) [μg/cm^2] | Accumulative osmolality ([1]; 4 hours) [μg/cm^2] | Accumulative osmolality ([1]; 6 hours) [μg/cm^2] | Accumulative osmolality ([1]; 8 hours) [μg/cm^2] | Accumulative osmolality ([1]; 10 hours) [μg/cm^2] | Accumulative osmolality ([1]; 12 hours) [μg/cm^2] | Total osmolality of 24 h [1] [µg] | Accumulative osmolality ([1]; 24 hours) [μg/cm^2] | transdermal absorption amount relative to bromfenac sodium ([1]; 24 hours) [times] | Osmotic rate [1] [μg/cm^2 · h^−1] | Osmotic percentage [1] [%] | time at which distribution in tissue reaches maximum values (peak concentrations) [2] [h] | concentration distributed in tissue compared with bromfenac sodium [2] | content (HPLC), solid state ([3]; 60° C., 1 week) [%] | content (HPLC), solid state ([3]; 60° C., 2 weeks) [%] | content (HPLC), solid state ([3]; 60° C., 3 weeks) [%] | change of content in accelerated test at 60° C. [3] | content (HPLC), aqueous state ([4]; 25° C., dark, 2 weeks) [%] | content (HPLC), aqueous state ([4]; 25° C., dark, 3 weeks) [%] | degradation products and content changes in aqueous solution [4] | also measured |
| --- | --- | --- | --- | --- | --- | --- | --- | --- | --- | --- | --- | --- | --- | --- | --- | --- | --- | --- | --- | --- | --- |
| Nc1c(CC(=O)O)cccc1C(=O)c1ccc(Br)cc1 [Bromfenac diethylamine salt, bromfenac diethylamine salt] | 322.8 | 964.1 | 1898.6 | 2721.8 | 3303.0 | 4123.6 | 10360.0 | 8426.7 | 1.85 | 369.04 | 51.80 | 2 | significantly greater | 99.5 | 99.3 | 99.2 | no significant substantial change | 99.4 | 99.2 | not observed | Concentration in muscle tissue ([2]; 0 hours (before administration)): 0 ng/mL; Concentration in muscle tissue ([2]; 2 hours after administration of 1 g preparation on back skin): 1092.1 ng/mL; Concentration in muscle tissue ([2]; 4 hours after administration of 1 g preparation on back skin): 2657.6 ng/mL; Concentration in muscle tissue ([2]; 6 hours after administration of 1 g preparation on back skin): 1803.7 ng/mL; Concentration in muscle tissue ([2]; 8 hours after administration of 1 g preparation on back skin): 1108.3 ng/mL; Concentration in muscle tissue ([2]; 10 hours after administration of 1 g preparation on back skin): 262.4 ng/mL; content (HPLC), solid state ([3]; Initial): 99.5%; content (HPLC), aqueous state ([4]; 25° C., dark, 1 week): 99.5%; content (HPLC), aqueous state ([4]; Initial): 99.5% |
| Nc1c(CC(=O)[O-])cccc1C(=O)c1ccc(Br)cc1.[Na+] [Bromfenac sodium, 2-amino-3-(4-bromobenzoyl)phenylacetic acid sodium salt sesquialter hydrate, reference compound] | 45.5 | 118.5 | 340.8 | 708.6 | 1231.3 | 2214.5 | 5600.0 | 4554.1 |  | 219.05 | 28.0 | 2 |  | 99.5 | 99.3 | 99.1 | no significant substantial change | 99.4 | 99.1 | not observed | concentration at 0 h ([2]; in vivo, 0 hours (before administration)): 0 ng/mL; concentration at 2 h ([2]; in vivo, 2 hours after administration of 1 g preparation on back skin): 238 ng/mL; concentration at 4 h ([2]; in vivo, 4 hours after administration of 1 g preparation on back skin): 693 ng/mL; concentration at 6 h ([2]; in vivo, 6 hours after administration of 1 g preparation on back skin): 509 ng/mL; concentration at 8 h ([2]; in vivo, 8 hours after administration of 1 g preparation on back skin): 313 ng/mL; concentration at 10 h ([2]; in vivo, 10 hours after administration of 1 g preparation on back skin): 130 ng/mL; content (HPLC), solid state ([3]; Initial): 99.6%; content (HPLC), aqueous state ([4]; 25° C., dark, 1 week): 99.5%; content (HPLC), aqueous state ([4]; Initial): 99.6% |
| Nc1c(CC(=O)O)cccc1C(=O)c1ccc(Br)cc1 [Bromfenac trometamol salt, bromfenac trometamol salt] | 277.2 | 632.5 | 1268.3 | 2089.6 | 2736.1 | 3085.7 | 9010.0 | 7326.9 | 1.61 | 320.61 | 45.05 | 2 | significantly greater |  | 99.4 | 99.2 | no significant substantial change | 99.3 | 99.1 | not observed | concentration at 0 h ([2]; muscle tissue under skin of administration site, topical, 0 hours (before administration)): 0 ng/mL; concentration at 2 h ([2]; muscle tissue under skin of administration site, topical, 2 hours after administration of 1 g preparation on back skin): 852 ng/mL; concentration at 4 h ([2]; muscle tissue under skin of administration site, topical, 4 hours after administration of 1 g preparation on back skin): 1490 ng/mL; concentration at 6 h ([2]; muscle tissue under skin of administration site, topical, 6 hours after administration of 1 g preparation on back skin): 1100 ng/mL; concentration at 8 h ([2]; muscle tissue under skin of administration site, topical, 8 hours after administration of 1 g preparation on back skin): 790 ng/mL; concentration at 10 h ([2]; muscle tissue under skin of administration site, topical, 10 hours after administration of 1 g preparation on back skin): 201 ng/mL |
